Test results as given in US10058097B2, “Methods to increase corn productivity” (Valent BioSciences Corporation, priority 2016, dated 2018).

Assays:
Assay type in all cases: in vivo
greenhouse-grown maize [1] = assay: Greenhouse study: effect of GA3 + GB dose on growth, seven days; details: GA3 120 mg/liter, GB 0 mg/liter; spray at V3; n = 7 plants
Description: (§1) In several of the following examples, corn was grown in greenhouse conditions, which are defined as follows. Seeds of a commercial hybrid variety were sown in Pro-Mix® BX (Pro-Mix is a registered trademark of Premier Horticulture Ltd.) with the addition of Osmocote (14-14-14) and gypsum in three-liter pots. Greenhouses were kept at 25±3° C. under a 16:8 hour photoperiod, with illumination at canopy level of ˜250 μmoles m^−2s^−1. Corn was typically fertigated with Peters 21-5-20+micronutrients, calcium ammonium nitrate and magnesium sulfate. Typical growth rates for corn under these conditions ranged from 4-5 cm/day.
(§2) In most greenhouse studies, spray applications were made. These applications were made in a track sprayer outfitted with a 4001E Teejet® nozzle (Teejet is available from and a registered trademark of Spraying Systems Co., Glendale Heights, Ill., USA) and applied at 40 psi. Although application volumes did vary between some studies, generally, 30 gallons/acre of spray solution was applied. Following spray applications, plants were returned to the greenhouse. Typically, experiments were blocked according to plant size, and a randomized complete block design (RCB) was used.
In a greenhouse study, plants were sprayed at V3 stage with solutions containing a non-ionic surfactant (0.25%, v/v) at 30 gallons of spray solution/acre and growth was followed for seven days.

greenhouse-grown maize [2] = assay: Greenhouse study: effect of GA3 dose +/- GB on growth, 7 and 14 days; details: without or with GB 10000 mg/liter
Description: as §1, §2
(§3) Synergy was determined using the following formula, in which a synergy factor is calculated by the Abbott method: % Cexp=A+B−(AB/100), here % Cexp is the expected efficacy and “in which A and B are the increase in growth (or resistance to stress) levels given by the single [plant growth regulators]. If the ratio between the experimentally observed efficacy of the mixture Cobs and the expected efficacy of the mixture is greater than 1, synergistic interactions are present in the mixture” (Gisi, Synergistic Interaction of Fungicides in Mixtures, The American Phytopathological Society, 86:11, 1273-1279, 1996).
In a separate study, the effect of one rate of GB on various doses of GA3 was studied.

corn [3] = assay: Greenhouse study: Gibberellins, (S)-ABA and Glycine betaine on corn growth; details: GA3 or GA4 120 mg/liter, GB 10000 mg/liter, (S)-ABA 8.8 mg/liter
Description: as §1, §2
When gibberellins are combined with specific ratios of (S)-(+)-abscisic acid (“(S)-ABA”), a surprising enhancement of corn growth after application is often observed. The addition of GB to gibberellin+(S)-ABA spray combinations further increases the growth-promoting activity of the mixtures, as is shown in Table 6.

corn plants [4] = assay: Chilling stress study (10° C. for five days) after spray with GA3 or GB; details: chilling stress at 10° C. for five days; GA3 120 mg/liter, GB 3000 mg/liter; n = 7 plants
Description: In stress studies, plants were subjected to various stresses. In cold stress studies, after spraying, plants were grown in the greenhouse for an additional 48 hours before being measured and moved to a CMP6050 CONVIRON® chamber kept at 10° C. (Conviron is a registered trademark of Controlled Environments Limited Corporation). Illumination was at ˜225 μMoles, and light:dark conditions were on a 12:12 hour photoperiod. After 120 hours of chilling, plants were removed from the cold, measured, and returned to the greenhouse for 48 hours prior to harvest.
as §3
In a greenhouse and growth room study conducted in Long Grove, Ill., corn plants of a commonly grown hybrid were subjected to the following stress regimen: at two days post-foliar application, plants were moved into a controlled environment chamber, where the temperature was maintained at 10° C. with a 12:12 hour photoperiod for five days. At the end of the chilling period, the corn was moved back to the greenhouse for two days before destructive harvest.

corn [5] = assay: Nutrient stress greenhouse study, GA3 and/or GB, 7 days; details: GA3 120 mg/liter, GB 10,000 mg/liter; for Change in Height: n = 7 plants
Description: as §3
During rainy periods in March-May in the Midwestern United States, nitrogen fertilizer for corn is often limited due to a combination of leaching and mineralization. GB included with GA3 can help overcome the slow growth caused by low nutrients. In a greenhouse study in Long Grove, Ill. we evaluated the effect of GA3, GB and the combination under ‘normal nutrient’ and limited nutrient conditions.

corn [6] = assay: Field study Woodstock, Ill. 2014, corn growth
Description: A field study was conducted at Woodstock, Ill. in 2014. Seeds of a central corn belt hybrid with 111 days to maturity were sown on May 20, 2014. Plants were sprayed at V4 with solutions containing a non-ionic surfactant (0.25%, v/v) at 15 gallons of spray solution/acre. Growth was followed by measuring shoot height in centimeters for 60 plants in each replicate at 7 and 14 days post spraying.

corn [7] = assay: Field study Woodstock, IL 2015, height, ear counts and yield
Description: A field study was conducted at Woodstock, Ill. Seeds of a central corn belt variety with 103 days to maturity were sown and plants were sprayed at V5 with solutions containing a non-ionic surfactant (0.25%, v/v) at 15 gallons of spray solution/acre. Growth was followed by measuring shoot heights in centimeters 50 plants in each replicate at 7 and 13 days post-spraying. The number of kernels per kernel-row (average kernel number) as well as the number of kernel-rows (average row number) per ear was counted for 50 plants in each replicate 7 days before harvest. The harvest grain yield was corrected to 15% moisture.

corn plants [8] = assay: Field study Colby, KS 2015, yield; details: GA3 120 mg/liter, GB 10000 mg/liter, (S)-ABA 9 mg/liter
Excerpt: In a field study conducted in Colby, Kans., corn plants were sprayed with solutions containing a non-ionic surfactant (0.25%, v/v) at 15 gallons of spray solution per acre.

[9] = field, spray at V4, GA3 120 mg/liter, GB 10,000 mg/liter
[10] = field, spray at V5, GA3 120 mg/liter, GB 10000 mg/liter, (S)-ABA 9 mg/liter

Which “Growth Rate” value (greenhouse-grown maize [1]) does the source give for `C=C1C[C@]23C[C@@]1(O)CC[C@H]2[C@@]12C=C[C@H](O)[C@@](C)(C(=O)O1)[C@H]2[C@@H]3C(=O)O` [GA3, gibberellic acid] here?
Its value is 4.86 cm/day.

What about the “Plant Growth over 7 days” value (greenhouse-grown maize [1]) of the same compound?
Its value is 34.01 cm.

What about the “Growth Rate, 0-7 day(s)” value (greenhouse-grown maize [2]; GA3 30 mg/liter) of the same compound?
Its value is 3.17 cm/day.

What about the “Growth Rate, 0-14 day(s)” value (greenhouse-grown maize [2]; GA3 30 mg/liter) of the same compound?
Its value is 6.82 cm/day.

And the “Plant Growth over 7 days” value (greenhouse-grown maize [2]; GA3 30 mg/liter)?
The value was 22.2 cm.

And the “Plant Growth over 14 days” value (greenhouse-grown maize [2]; GA3 30 mg/liter)?
The value was 47.8 cm.

What about the “Growth Rate, 0-7 day(s)” value (greenhouse-grown maize [2]; GA3 60 mg/liter) of the same compound?
Its value is 3.57 cm/day.

And the “Growth Rate, 0-14 day(s)” value (greenhouse-grown maize [2]; GA3 60 mg/liter)?
Its value is 7.24 cm/day.

What about the “Plant Growth over 7 days” value (greenhouse-grown maize [2]; GA3 60 mg/liter) of the same compound?
Its value is 25.0 cm.

What about the “Plant Growth over 14 days” value (greenhouse-grown maize [2]; GA3 60 mg/liter) of the same compound?
The value was 50.7 cm.

What about the “Growth Rate, 0-7 day(s)” value (greenhouse-grown maize [2]; GA3 120 mg/liter) of the same compound?
Its value is 3.91 cm/day.

What about the “Growth Rate, 0-14 day(s)” value (greenhouse-grown maize [2]; GA3 120 mg/liter) of the same compound?
Its value is 7.35 cm/day.

And the “Plant Growth over 7 days” value (greenhouse-grown maize [2]; GA3 120 mg/liter)?
The value was 27.3 cm.

And the “Plant Growth over 14 days” value (greenhouse-grown maize [2]; GA3 120 mg/liter)?
Its value is 51.4 cm.

And the “Growth Rate, 0-7 day(s)” value (greenhouse-grown maize [2]; GA3 240 mg/liter)?
Its value is 4.25 cm/day.

What about the “Growth Rate, 0-14 day(s)” value (greenhouse-grown maize [2]; GA3 240 mg/liter) of the same compound?
Its value is 7.94 cm/day.

What about the “Plant Growth over 7 days” value (greenhouse-grown maize [2]; GA3 240 mg/liter) of the same compound?
Its value is 29.8 cm.

What about the “Plant Growth over 14 days” value (greenhouse-grown maize [2]; GA3 240 mg/liter) of the same compound?
The value was 55.6 cm.

And the “7 days Change in Height” value (corn [3])?
The value was 32.5 cm.

And the “14 days Change in Height” value (corn [3])?
The value was 62.8 cm.

What about the “Dry Weight” value (corn [3]) of the same compound?
The value was 8.1 g.

And the “Growth Rate” value (corn plants [4])?
The value was 2.38 cm/day.

What about the “Growth over 9 days” value (corn plants [4]) of the same compound?
Its value is 21.43 cm.

What about the “Leaf Area of L1-L5” value (corn plants [4]) of the same compound?
Its value is 324.24 cm^2.

What about the “Dry Weight” value (corn [5]; Low Nutrients) of the same compound?
The value was 2.50 g.

And the “Leaf Area (L1-L6)” value (corn [5]; Low Nutrients)?
The value was 588.66 cm^2.

What about the “Change in Height” value (corn [5]; Low Nutrients) of the same compound?
Its value is 30.34 cm.

What about the “Dry Weight” value (corn [5]; Normal Nutrients) of the same compound?
Its value is 2.86 g.

And the “Leaf Area (L1-L6)” value (corn [5]; Normal Nutrients)?
Its value is 629.45 cm^2.

And the “Change in Height” value (corn [5]; Normal Nutrients)?
Its value is 38.83 cm.

What about the “Growth Rate from 7-14 days” value (corn [6]; [9]) of the same compound?
Its value is 4.89 cm/day.

And the “Height at 7 days post spray” value (corn [6]; [9])?
Its value is 68.2 centimeters.

What about the “Height at 14 days post spray” value (corn [6]; [9]) of the same compound?
Its value is 102.4 centimeters.

What about the “growth increase over the control plants (surfactant alone)” value (corn [6]; one week after treatment application) of the same compound?
The value was 6.9%.

What about the “Average row number per ear” value (corn [7]; counted 7 days before harvest) of the same compound?
Its value is 16.8.

What about the “Height at 7 days post spray” value (corn [7]; [10]) of the same compound?
The value was 69.6 cm.

What about the “Height at 13 days post spray” value (corn [7]; [10]) of the same compound?
The value was 88.6 cm.

What about the Yield (corn [7]; grain yield corrected to 15% moisture) of the same compound?
The Yield was 222.8 bu/acre.

And the Yield (corn plants [8])?
Its Yield is 188.9 bu/acre.
